# Test results taken from patent publication US20200124600A1, “METHODS OF TREATING AUTOIMMUNE AND INFLAMMATORY DISEASES” (Genentech, Inc., priority 2017, published 2020).
# pIC50: −log10 of the molar value.
# How the values were obtained:
# [1] = system: human memory B cells; assay: CpG-mediated plasmablast differentiation of memory B cells, flow cytometry; type: cell-based; settings: B-cell, memory B cells from healthy donors, ODN2006 5 ug/ml plus cytokines, n=3, read-out: IC50 potency, inhibition of CpG-mediated plasmablast differentiation
# Description: (§1) Plasmablast Differentiation: Memory B cells were isolated from Healthy donor PBMC (Miltenyi Memory B cell isolation kit). For the Plasmablast differentiation, 1.5×10^5/ml memory B cells were then cultured in the presence of a cocktail of cytokines, IL-2(20 U/ml), IL-10 (50 ng/ml), IL-15(10 ng/ml), IL-6 (50 ng/ml), IFNa (10 ng/ml) and stimulated with either ODN2006 (TLR-9 ligand) 5 ug/ml, or CD40L (3 ug/ml) for 5 days. The plasmablast differentiation was carried out in the presence of vehicle alone (DMSO) and GDC-0852 at various concentrations, using a 3 fold dose titration of inhibitor starting at 10 uM. Flow cytometry was performed to enumerate ([…]) plasmablast percentages and assess the inhibition by GDC-0852.
# (§2) Statistical analyses were performed using either <> or custom scripts written in the R programming language. […] IC50 values for BTK inhibition was calculated using the GraphPad Prism software. […]
# (§3) Results: The differentiation of B cells into plasmablast can occur through multiple activation stimuli and involves distinct molecular changes. […] We evaluated the effect of the BTK inhibitor GDC-0852 in the plasmablast differentiation process, either by a T cell-mediated response using CD40L stimulation or a T cell-independent response using the Toll-like receptor ligand, CpG.
# [2] = system: human memory B cells; assay: CD40L induced plasmablast differentiation of memory B cells, flow cytometry; type: cell-based
# Description: It was confirmed that plasmablast differentiation was regulated by Bruton's Tyrosine Kinase (BTK) activity by performing an in vitro plasmablasts differentiation assay where human memory B cells were put into differentiating conditions, and were subsequently measured after 5 days using flow cytometry quantification for CD20^loCD38^++ plasmablasts. […] GDC-0852 is (S)-2-(5-Fluoro-2-(hydroxymethyl)-3-(1-methyl-5-(5-(2-methyl-4-(oxetan-3-y-1)piperazin-1-yl)pyridin-2-ylamino)-6-oxo-1,6-dihydropyridin-3-yl)-phenyl)-3,4,6,7,8,9-hexahydropyrido[3,4-b]indolizin-1(2H)-one, the structure of which is shown below:
# Plasmablast Differentiation: Memory B cells were isolated from Healthy donor PBMC (Miltenyi Memory B cell isolation kit). […]
# as §2, §3
# [3] = system: plasmablast signature genes IgJ, MZB1, TXNDC5; assay: Plasmablast signature gene expression in differentiated memory B cells, Fluidigm quantitative RT-PCR; type: cell-based, human; settings: 370 nM vs DMSO, 5 days, n=4 donors
# Description: FIGS. 8A, 8B, 8C and 8D. BTK inhibition reduces the plasmablast gene signature. Memory B cells from 4 healthy donors were differentiated into plasmablasts using conditions described above, in the presence of DMSO vehicle or 370 nM GDC-0852. Expression of plasmablast signature genes was measured by Fluidigm, and normalized to a housekeeping gene (HPRT1). Expression values are plotted as the relative transcript abundance to the housekeeping gene. The plasmablast signature was calculated as the geometric mean of the relative abundances of the three individual genes.
# as §1
# RNA Preparation: RNA was extracted from the cells in culture at 5 days from the DMSO and GDC-0852 (370 nM) treated cells (n=4). Cells were disrupting in RLT buffer using the Qiashredder (Qiagen, Valencia, Calif.) and then RNA was extracted using the RNeasy mini kit (Qiagen) including the on-column DNase digestion. The concentration of total RNA and integrity of RNA samples was determined using the NanoDrop 8000 (Thermo Scientific). The isolated RNA was used for the Fluidigm quantitative RT-PCR analyses.
# QT PCR: cDNA synthesis was performed on 100 ng total-RNA using an iScript cDNA synthesis kit (Biorad, Hercules, Calif.). Gene-specific pre-amplification was performed (Applied Biosystems) for 3 genes (IgJ, MZB1, TXNDC5 including housekeeping genes TMEM55B. RT-PCR was performed using the BioMark 48.48 Dynamic Arrays (Fluidigm Corporation) using the manufacturer's protocol. Data were collected using the BioMark Data Collection Software and CT values were obtained using the BioMark RT-PCR Analysis Software (V.2.1.1, Fluidigm). The relative abundance (dCt) to HPRT1 was calculated: 2 log−(average Ct gene−average Ct HPRT1). For statistical analyses, values below the lower limit of detection were set to be 1 Ct lower than the lowest recorded value.
# as §2
# [4] = system: plasmablast signature; assay: Plasmablast signature in blood of extra-renal lupus patients, EXPLORER clinical trial; type: in vivo, human; settings: for expression of the plasmablast signature compared to patients treated with azathioprine: screening samples
# Description: (§4) Blood Sample Analysis: 3-gene plasmablast signature expression assay. Blood was collected in PAXgene RNA tubes (PreAnalytiX); total RNA was extracted using commercially available kits according to manufacturer instructions (Qiagen).
# (§5) Alternatively, expression of candidate biomarker genes in blood samples was quantified by Fluidigm qPCR assays. 3-gene score was calculated from the mean of IgJ, TXNDC5 and MZB1, and normalized using reference gene TMEM55B. Blood samples were assessed using this assay developed on the Cobas 4800 platform (Roche Molecular Systems).
# (§6) Plasmablast signature values were collected from two cohorts of moderate to severe lupus patients from phase II clinical trials assessing the safety and efficacy of rituximab in SLE. The cohorts were patients with either lupus nephritis (LUNAR) or extra-renal lupus (EXPLORER). Mixed effects modeling of plasmablast signature values over the course of treatment, incorporating covariates for age, race, concomitant medications, interferon activity, SLEDAI, visit, treatment arm and their interaction, with patient modeled as a random effect, identified a profound decrease in plasmablast signature specifically within the rituximab treated patients (FIG. 4A, 4B). This effect was most apparent in the time points two weeks after receiving rituximab infusion, with diminishing effect over time.
# In the EXPLORER trial, patients were monitored for presence of antibodies directed against mouse-human chimeric antibodies (HACA). […] Using the same linear mixed effects model, as above, a 2.8-fold higher expression of plasmablast marker genes was found in patients that went on to develop HACA (p=0.0007).
# Previous studies identified an association between different immunosuppressive treatments and reduced expression of plasmablast-associated genes.
# [5] = system: plasmablast signature; assay: Plasmablast signature in blood of lupus nephritis patients, LUNAR clinical trial; type: in vivo, human
# Description: as §4, §5
# as §6, with “time. […]” for “time.”
molecule,measurement,setting,value
"C[C@H]1CN(C2COC2)CCN1c1ccc(Nc2cc(-c3cc(F)cc(N4CCc5c(cc6n5CCCC6)C4=O)c3CO)cn(C)c2=O)nc1 [GDC-0852, (S)-2-(5-Fluoro-2-(hydroxymethyl)-3-(1-methyl-5-(5-(2-methyl-4-(oxetan-3-y-1)piperazin-1-yl)pyridin-2-ylamino)-6-oxo-1,6-dihydropyridin-3-yl)-phenyl)-3,4,6,7,8,9-hexahydropyrido[3,4-b]indolizin-1(2H)-one]",pIC50,[1],7.32
same,pIC50,"[2]; Homo sapiens, B-cell, 120 h, memory B cells from healthy donors, CD40L 3 ug/ml plus cytokines, day 5, FACS, read-out: IC50 potency, inhibition of CD40L induced plasmablast differentiation",7.70
same,inhibition of CD40L induced plasmablast differentiation,"[2]; human memory B cells, measured after 5 days, CD20loCD38++ plasmablasts by flow cytometry",inhibited CD40L induced plasmablast differentiation in a dose-dependent manner
same,expression of plasmablast signature gene MZB1,[3]; p=0.0023,significant decrease
same,composite plasmablast 3 gene signature,[3]; p=0.0026,significant decrease
same,expression of plasmablast signature gene TXNDC5,[3]; p=0.0032,significant decrease
same,expression of plasmablast signature gene IgJ,[3]; p=0.011,significant decrease
CN(Cc1cnc2nc(N)nc(N)c2n1)c1ccc(C(=O)N[C@@H](CCC(=O)O)C(=O)O)cc1 [methotrexate],expression of the plasmablast signature compared to patients treated with azathioprine,[4],much lower expression
"COc1c(C)c2c(c(O)c1C/C=C(\C)CCC(=O)OCCN1CCOCC1)C(=O)OC2 [mycophenolate, mycophenolate mofetil]",expression of the plasmablast signature compared to patients treated with azathioprine,[4],much lower expression
same,expression of plasmablast signature genes in patients on treatment at baseline,"[5]; baseline, relatively few patients in the MMF pool",trend toward lower expression
rituximab,change in plasmablast signature after treatment in patients that went on to develop anti-drug antibodies (HACA),[4]; HACA-positive patients,limited to no decrease
same,maximum decrease in plasmablast signature,"[4]; week 28, two weeks following the fourth infusion, p=2×10^−11",3.48 fold
same,reduction of plasmablast signature expression,"[5]; week 28 time point, p=0.0011",3.31 fold
